One may read the EC50 as the concentration giving half of the maximal effect.

Structures are written as SMILES. Like-named read-outs stand apart in the source and are kept apart here.

In this test the target is APJ (Homo sapiens (Human), UniProt P35414). Put plainly: [35S]GTPγS binding assay on membranes from CHO cells stably expressing human APJ receptor. Type of test: biochemical. For orientation: GTPγS is a poorly hydrolysed GTP analogue; its binding reports G protein activation.
Setting [1] is: read-out: Activity hAPJ SPA EC50 IP.

Chain of APJ (P35414 whole entry): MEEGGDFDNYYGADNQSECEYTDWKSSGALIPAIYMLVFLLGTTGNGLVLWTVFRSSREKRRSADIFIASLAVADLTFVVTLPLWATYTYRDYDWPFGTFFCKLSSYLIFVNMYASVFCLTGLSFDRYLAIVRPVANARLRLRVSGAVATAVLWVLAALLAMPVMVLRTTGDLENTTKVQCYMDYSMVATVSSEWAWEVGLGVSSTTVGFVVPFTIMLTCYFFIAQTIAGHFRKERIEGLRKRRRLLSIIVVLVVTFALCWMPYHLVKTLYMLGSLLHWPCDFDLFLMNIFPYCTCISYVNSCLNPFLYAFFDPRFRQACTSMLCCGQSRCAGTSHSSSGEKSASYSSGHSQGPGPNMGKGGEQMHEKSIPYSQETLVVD
Method: A GTPγS binding assay was performed on membranes prepared from CHO cells stably expressing human APJ receptor. The optimum experimental conditions for the concentrations of GDP, MgCl2, and NaCl in the assay buffer were initially determined. The assay was performed in assay buffer [20 mM HEPES, pH 7.5, 5 mM MgCl2, and 0.1% (w/v) BSA with 200 mM NaCl, 3 M GDP] and membranes expressing human APJ receptor/well along with WGA PS beads. The reaction was initiated by addition of 0.2 nM [^35S]GTPγS (Perkin Elmer Life and Analytical Sciences, Waltham USA) in the absence or presence of various ligands and incubated at RT for 90 min. Nonspecific binding was determined in the presence of 100 M GTPγS and was always less than 0.2% of total binding.

`COc1cccc(OC)c1-n1c(NS(=O)(=O)[C@@H](C)[C@H](C)c2ncc(F)cn2)nnc1-c1cccnc1` (single isomer, unassigned) [Example 183.0, (2R,3S)-N-(4-(2,6-dimethoxyphenyl)-5-(3-pyridinyl)-4H-1,2,4-triazol-3-yl)-3-(5-fluoro-2-pyrimidinyl)-2-butanesulfonamide or (2S,3R)-N-(4-(2,6-dimethoxyphenyl)-5-(3-pyridinyl)-4H-1,2,4-triazol-3-yl)-3-(5-fluoro-2-pyrimidinyl)-2-butanesulfonamide] registered an EC50 (Activity hAPJ SPA EC50 IP (μM)) of 0.06 µM. `COc1cccc(OC)c1-n1c(NS(=O)(=O)[C@@H](C)[C@H](O)c2ccc(C#N)cc2)nnc1-c1cncc(C)c1` (single isomer, unassigned) [Example 249.0, (1R,2S)-1-(4-cyanophenyl)-N-(4-(2,6-dimethoxyphenyl)-5-(5-methyl-3-pyridinyl)-4H-1,2,4-triazol-3-yl)-1-hydroxy-2-propanesulfonamide or (1S,2R)-1-(4-cyanophenyl)-N-(4-(2,6-dimethoxyphenyl)-5-(5-methyl-3-pyridinyl)-4H-1,2,4-triazol-3-yl)-1-hydroxy-2-propanesulfonamide]: under setting [1], the EC50 came to 0.0011 µM. Consider `COc1cnc([C@@H](OC)[C@H](C)S(=O)(=O)Nc2nnc(-c3cncc(C)c3)n2-c2c(OC)cccc2OC)cn1` (single isomer, unassigned) [Example 310.0], for which a half-maximal effect (Activity hAPJ SPA EC50 IP (μM)) (EC50) was put at 0.00066 µM. As to `CCO[C@@H](c1cnc(C)cn1)[C@@H](C)S(=O)(=O)Nc1nnc(-c2cccc(OC)n2)n1-c1c(OC)cccc1OC` (single isomer, unassigned) [Example 588.0, (1S,2R)-N-(4-(2,6-dimethoxyphenyl)-5-(6-methoxy-2-pyridinyl)-4H-1,2,4-triazol-3-yl)-1-ethoxy-1-(5-methyl-2-pyrazinyl)-2-propanesulfonamide or (1R,2S)-N-(4-(2,6-dimethoxyphenyl)-5-(6-methoxy-2-pyridinyl)-4H-1,2,4-triazol-3-yl)-1-ethoxy-1-(5-methyl-2-pyrazinyl)-2-propanesulfonamide], the concentration giving a half-maximal response (EC50) under setting [1] worked out at 0.00052 µM.

In the case of `CCO[C@@H](c1cnc(C)cn1)[C@@H](C)S(=O)(=O)Nc1nnc(-c2cccc(OC)n2)n1-c1c(OC)cccc1OC` (single isomer, unassigned) [Example 589.0, (1S,2R)-N-(4-(2,6-dimethoxyphenyl)-5-(6-methoxy-2-pyridinyl)-4H-1,2,4-triazol-3-yl)-1-ethoxy-1-(5-methyl-2-pyrazinyl)-2-propanesulfonamide or (1R,2S)-N-(4-(2,6-dimethoxyphenyl)-5-(6-methoxy-2-pyridinyl)-4H-1,2,4-triazol-3-yl)-1-ethoxy-1-(5-methyl-2-pyrazinyl)-2-propanesulfonamide], under setting [1], the EC50 stood at 0.02 µM. For `COc1cccc(OC)c1-n1c(NS(=O)(=O)[C@@H](C)Cc2ncc(F)cn2)nnc1-c1cccc(C)n1` (single isomer, unassigned) [Example 619.0, (S)-N-(4-(2,6-dimethoxyphenyl)-5-(6-methylpyridin-2-yl)-4H-1,2,4-triazol-3-yl)-1-(5-fluoropyrimidin-2-yl)propane-2-sulfonamide or (R)-N-(4-(2,6-dimethoxyphenyl)-5-(6-methylpyridin-2-yl)-4H-1,2,4-triazol-3-yl)-1-(5-fluoropyrimidin-2-yl)propane-2-sulfonamide], for the setting “Activity hAPJ SPA EC50 IP (μM)”, a half-maximal response (EC50) required 0.0015 µM. For the compound `COc1cccc(OC)c1-n1c(NS(=O)(=O)[C@@H](C)[C@H](OC)c2ncc(C)o2)nnc1-c1cncc(C)c1` (single isomer, unassigned) [Example 632.0, (1S,2R)-N-(4-(2,6-dimethoxyphenyl)-5-(5-methylpyridin-3-yl)-4H-1,2,4-triazol-3-yl)-1-methoxy-1-(5-methyloxazol-2-yl)propane-2-sulfonamide or (1R,2S)-N-(4-(2,6-dimethoxyphenyl)-5-(5-methylpyridin-3-yl)-4H-1,2,4-triazol-3-yl)-1-methoxy-1-(5-methyloxazol-2-yl)propane-2-sulfonamide], the EC50 under setting [1] was determined as 0.21 µM. On the same count and under the same terms, the figure for `COc1cccc(OC)c1-n1c(NS(=O)(=O)[C@@H](C)[C@H](OC)c2ncc(C)o2)nnc1-c1cncc(C)c1` (single isomer, unassigned) [Example 633.0, (1S,2R)-N-(4-(2,6-dimethoxyphenyl)-5-(5-methylpyridin-3-yl)-4H-1,2,4-triazol-3-yl)-1-methoxy-1-(5-methyloxazol-2-yl)propane-2-sulfonamide or (1R,2S)-N-(4-(2,6-dimethoxyphenyl)-5-(5-methylpyridin-3-yl)-4H-1,2,4-triazol-3-yl)-1-methoxy-1-(5-methyloxazol-2-yl)propane-2-sulfonamide] is 0.0069 µM; for `COc1cccc(OC)c1-n1c(NS(=O)(=O)[C@@H](C)[C@H](C)c2ncc(F)c([C@@H]3COCCO3)n2)nnc1-c1cccc(OCC(O)(C(F)(F)F)C(F)(F)F)n1` (single isomer, unassigned) [Example 639.0] it is 0.16 µM; for `COc1cccc(OC)c1-n1c(NS(=O)(=O)[C@@H](C)[C@H](C)c2ncc(F)c([C@@H]3COCCO3)n2)nnc1-c1cccc(OCC(O)(C(F)(F)F)C(F)(F)F)n1` (single isomer, unassigned) [Example 640.0] it is 0.33 µM. On the same count and under the same terms, the figure for `COc1cccc(OC)c1-n1c(NS(=O)(=O)[C@@H]2CCCO[C@@H]2c2ncc(C)cn2)nnc1-c1cncc(C)c1` (single isomer, unassigned) [Example 643.0] is 0.15 µM.

With `COc1cccc(OC)c1-n1c(NS(=O)(=O)[C@@H]2CCCO[C@@H]2c2ncc(C)cn2)nnc1-c1cncc(C)c1` (single isomer, unassigned) [Example 644.0], under setting [1], the EC50 stood at 0.18 µM. For `COc1cccc(OC)c1-n1c(NS(=O)(=O)[C@@H]2CCCO[C@@H]2c2ncc(C)cn2)nnc1-c1cncc(C)c1` (single isomer, unassigned) [Example 645.0], the EC50 under setting [1] is 0.06 µM. As for `COc1cccc(OC)c1-n1c(NS(=O)(=O)[C@@H]2CCCO[C@@H]2c2ncc(C)cn2)nnc1-c1cncc(C)c1` (single isomer, unassigned) [Example 646.0], under setting [1], the EC50 was 0.053 µM.

With `COc1cccc(-c2nnc(NS(=O)(=O)[C@@H]3CCCO[C@@H]3c3ncc(C)cn3)n2-c2c(OC)cccc2OC)n1` (single isomer, unassigned) [Example 654.0], under setting [1], the EC50 was determined as 0.15 µM. Still for that read-out and setting: for `COc1cccc(-c2nnc(NS(=O)(=O)[C@@H]3CCCO[C@@H]3c3ncc(C)cn3)n2-c2c(OC)cccc2OC)n1` (single isomer, unassigned) [Example 655.0] the value was 0.13 µM; for `COc1cccc(-c2nnc(NS(=O)(=O)[C@@H]3CCCO[C@@H]3c3ncc(C)cn3)n2-c2c(OC)cccc2OC)n1` (single isomer, unassigned) [Example 656.0], 0.013 µM; for `COc1cccc(-c2nnc(NS(=O)(=O)[C@@H]3CCCO[C@@H]3c3ncc(C)cn3)n2-c2c(OC)cccc2OC)n1` (single isomer, unassigned) [Example 657.0], 0.014 µM.

(Values after patent US9845310B2 (priority 2015, dated 2017).)
